This note sets out measurements from patent US11149040B2, “Fused triazole agonists of the APJ receptor” (AMGEN INC., priority 2017, dated 2021).

SMILES strings stand for the structures. Bounds are passed on as bounds.

human APJ receptor, sequence (P35414 whole entry): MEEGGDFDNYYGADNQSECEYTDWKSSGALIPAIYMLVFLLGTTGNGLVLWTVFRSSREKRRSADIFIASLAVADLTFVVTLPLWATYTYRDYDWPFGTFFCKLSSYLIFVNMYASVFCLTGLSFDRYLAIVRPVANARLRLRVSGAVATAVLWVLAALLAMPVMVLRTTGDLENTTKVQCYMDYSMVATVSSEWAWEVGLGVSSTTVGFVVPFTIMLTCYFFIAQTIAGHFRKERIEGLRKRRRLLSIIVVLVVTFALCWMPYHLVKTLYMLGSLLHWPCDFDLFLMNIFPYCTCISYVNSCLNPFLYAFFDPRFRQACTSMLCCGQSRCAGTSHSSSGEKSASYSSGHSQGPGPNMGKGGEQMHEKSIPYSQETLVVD

The target of the test is human APJ receptor (Homo sapiens (Human), UniProt P35414). Briefly: [35S]GTPγS binding assay on membranes from CHO cells stably expressing human APJ receptor. The following applies: read-out: Activity hAPJ SPA EC50 IP. In kind it is biochemical. In short, it runs like this:
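Membranes from CHO cells stably expressing FLAG-tagged human APJ; assay buffer GDP, MgCl2 and NaCl levels optimised beforehand. Incubation 90 min at RT, imager read-out. EC50 from non-linear regression on means of several independent experiments.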
(GTPγS is a poorly hydrolysed GTP analogue; its binding reports G protein activation.)
The term EC50 denotes the concentration that produces a half-maximal response. As for `COC[C@@H]1COc2ccc(F)cc2-c2nnc(NS(=O)(=O)[C@@H](C)[C@H](OC)c3ncc(C)cn3)n21` (single isomer, unassigned) [Example 27.0, (1R,2S)-N-((5R)-10-fluoro-5-(methoxymethyl)-5,6-dihydro[1,2,4]triazolo[4,3-d][1,4]benzoxazepin-3-yl)-1-methoxy-1-(5-methyl-2-pyrimidinyl)-2-propanesulfonamide or (1R,2S)-N-((5S)-10-fluoro-5-(methoxymethyl)-5,6-dihydro[1,2,4]triazolo[4,3-d][1,4]benzoxazepin-3-yl)-1-methoxy-1-(5-methyl-2-pyrimidinyl)-2-propanesulfonamide], the EC50 was 490 nM.

As to `COC[C@@H]1COc2ccc(F)cc2-c2nnc(NS(=O)(=O)[C@@H](C)[C@H](OC)c3ncc(C)cn3)n21` (single isomer, unassigned) [Example 28.0, (1R,2S)-N-((5R)-10-fluoro-5-(methoxymethyl)-5,6-dihydro[1,2,4]triazolo[4,3-d][1,4]benzoxazepin-3-yl)-1-methoxy-1-(5-methyl-2-pyrimidinyl)-2-propanesulfonamide or (1R,2S)-N-((5S)-10-fluoro-5-(methoxymethyl)-5,6-dihydro[1,2,4]triazolo[4,3-d][1,4]benzoxazepin-3-yl)-1-methoxy-1-(5-methyl-2-pyrimidinyl)-2-propanesulfonamide], the EC50 worked out at 170 nM.

In the case of `COC[C@@H]1COc2ncccc2-c2nnc(NS(=O)(=O)CCc3ncc(C)cn3)n21` (single isomer, unassigned) [Example 34.0, N-((5R)-5-(methoxymethyl)-5,6-dihydropyrido[3,2-f][1,2,4]triazolo[4,3-d][1,4]oxazepin-3-yl)-2-(5-methyl-2-pyrimidinyl)ethanesulfonamide or N-((5S)-5-(methoxymethyl)-5,6-dihydropyrido[3,2-f][1,2,4]triazolo[4,3-d][1,4]oxazepin-3-yl)-2-(5-methyl-2-pyrimidinyl)ethanesulfonamide], the EC50 is 180 nM.

As to `COC[C@@H]1COc2c(OC)cccc2-c2nnc(NS(=O)(=O)[C@@H](C)[C@@H](OC(C)C)c3ncc(C)cn3)n21` (single isomer, unassigned) [Example 38.0, (1S,2S)-N-((5R)-8-methoxy-5-(methoxymethyl)-5,6-dihydro[1,2,4]traizolo[4,3-d][1,4]benzoxazepin-3-yl)-1-(5-methyl-2-pyrimidinyl)-1-(2-propanyloxy)-2-propanesulfonamide or (1S,2S)-N-((5S)-8-methoxy-5-(methoxymethyl)-5,6-dihydro[1,2,4]triazolo[4,3-d][1,4]benzoxazepin-3-yl)-1-(5-methyl-2-pyrimidinyl)-1-(2-propanyloxy)-2-propanesulfonamide], the EC50 is 64 nM.

Turning to `COC[C@@H]1COc2c(OC)cccc2-c2nnc(NS(=O)(=O)[C@@H](C)[C@@H](OC(C)C)c3ncc(C)cn3)n21` (single isomer, unassigned) [Example 39.0, (1S,2S)-N-((5R)-8-methoxy-5-(methoxymethyl)-5,6-dihydro[1,2,4]traizolo[4,3-d][1,4]benzoxazepin-3-yl)-1-(5-methyl-2-pyrimidinyl)-1-(2-propanyloxy)-2-propanesulfonamide or (1S,2S)-N-((5S)-8-methoxy-5-(methoxymethyl)-5,6-dihydro[1,2,4]traizolo[4,3-d][1,4]benzoxazepin-3-yl)-1-(5-methyl-2-pyrimidinyl)-1-(2-propanyloxy)-2-propanesulfonamide], the EC50 came to 8 nM.

As to `COC[C@@H]1COc2ncccc2-c2nnc(NS(=O)(=O)[C@@H](C)[C@@H](OC(C)C)c3ncc(C)cn3)n21` (single isomer, unassigned) [Example 40.0], the EC50 was 86 nM.

As for `COC[C@@H]1COc2ncccc2-c2nnc(NS(=O)(=O)[C@@H](C)[C@@H](OC(C)C)c3ncc(C)cn3)n21` (single isomer, unassigned) [Example 41.0, (1S,2S)-N-((5R)-5-(methoxymethyl)-5,6-dihydropyrido[3,2-f][1,2,4]triazolo[4,3-d][1,4]oxazepin-3-yl)-1-(5-methyl-2-pyrimidinyl)-1-(2-propanyloxy)-2-propanesulfonamide or (1S,2S)-N-((5S)-5-(methoxymethyl)-5,6-dihydropyrido[3,2-f][1,2,4]triazolo[4,3-d][1,4]oxazepin-3-yl)-1-(5-methyl-2-pyrimidinyl)-1-(2-propanyloxy)-2-propanesulfonamide], the EC50 turned out to be 44 nM.

`COC[C@@H]1COc2ncccc2-c2nnc(NS(=O)(=O)[C@@H](C)[C@@H](OC(C)C)c3ncc(Cl)cn3)n21` (single isomer, unassigned) [Example 44.0, (1S,2S)-1-(5-chloro-2-pyrimidinyl)-N-((5R)-5-(methoxymethyl)-5,6-dihydropyrido[3,2-f][1,2,4]triazolo[4,3-d][1,4]oxazepin-3-yl)-1-(2-propanyloxy)-2-propanesulfonamide or (1S,2S)-1-(5-chloro-2-pyrimidinyl)-N-((5S)-5-(methoxymethyl)-5,6-dihydropyrido[3,2-f][1,2,4]triazolo[4,3-d][1,4]oxazepin-3-yl)-1-(2-propanyloxy)-2-propanesulfonamide]: the EC50 came out at 15 nM.

With `COC[C@@H]1COc2ncccc2-c2nnc(NS(=O)(=O)[C@@H](C)[C@@H](OC(C)C)c3ncc(Cl)cn3)n21` (single isomer, unassigned) [Example 45.0, (1S,2S)-1-(5-chloro-2-pyrimidinyl)-N-((5R)-5-(methoxymethyl)-5,6-dihydropyrido[3,2-f][1,2,4]triazolo[4,3-d][1,4]oxazepin-3-yl)-1-(2-propanyloxy)-2-propanesulfonamide or (1S,2S)-1-(5-chloro-2-pyrimidinyl)-N-((5S)-5-(methoxymethyl)-5,6-dihydropyrido[3,2-f][1,2,4]triazolo[4,3-d][1,4]oxazepin-3-yl)-1-(2-propanyloxy)-2-propanesulfonamide], the EC50 is 160 nM.

With `Cc1cnc([C@H](OC(C)C)[C@H](C)S(=O)(=O)Nc2nnc3n2-c2ccccc2/C=C\CC3)nc1` (single isomer, unassigned) [Example 47.0, (P) (1S,2S)-N-((Z)-4,5-dihydrobenzo[g][1,2,4]triazolo[4,3-a]azocin-1-yl)-1-isopropoxy-1-(5-methylpyrimidin-2-yl)propane-2-sulfonamide or (M) (1S,2S)-N-((Z)-4,5-dihydrobenzo[g][1,2,4]triazolo[4,3-a]azocin-1-yl)-1-isopropoxy-1-(5-methylpyrimidin-2-yl)propane-2-sulfonamide], the EC50 is > 12500 nM.

Turning to `Cc1cnc([C@H](OC(C)C)[C@H](C)S(=O)(=O)Nc2nnc3n2-c2c(F)cccc2/C=C\CC3)nc1` (single isomer, unassigned) [Example 48.0, (P)(1S,2S)-N-((Z)-11-Fluoro-4,5-dihydrobenzo[g][1,2,4]triazolo[4,3-a]azocin-1-yl)-1-isopropoxy-1-(5-methylpyrimidin-2-yl)propane-2-sulfonamide or (M)(1S,2S)-N-((Z)-11-fluoro-4,5-dihydrobenzo[g][1,2,4]triazolo[4,3-a]azocin-1-yl)-1-isopropoxy-1-(5-methylpyrimidin-2-yl)propane-2-sulfonamide], the EC50 was > 12500 nM.

In the case of `Cc1cnc([C@H](OC(C)C)[C@H](C)S(=O)(=O)Nc2nnc3n2-c2c(F)cccc2/C=C\C[C@@H]3C)nc1` (single isomer, unassigned) [Example 50.0], the EC50 came out at 12 nM.

On to `Cc1cnc([C@H](OC(C)C)[C@H](C)S(=O)(=O)Nc2nnc3n2-c2c(F)cccc2/C=C\C[C@@H]3C)nc1` (single isomer, unassigned) [Example 51.0], for which the EC50 came to 8.6 nM.

Turning to `Cc1cnc([C@H](OC(C)C)[C@H](C)S(=O)(=O)Nc2nnc3n2-c2c(F)cccc2/C=C\C[C@@H]3C)nc1` (single isomer, unassigned) [Example 52.0], the EC50 was > 12500 nM.

Take `Cc1cnc([C@H](OC(C)C)[C@H](C)S(=O)(=O)Nc2nnc3n2-c2c(F)cccc2/C=C\C[C@@H]3C)nc1` (single isomer, unassigned) [Example 53.0]: the EC50 came to 220 nM.

For `CO[C@H](c1ncc(C)cn1)[C@H](C)S(=O)(=O)Nc1nnc2n1[C@H](COC(C)C)COc1ncccc1-2` (single isomer, unassigned) [Example 63.0, (1R,2S)-N-((R)-5-(isopropoxymethyl)-5,6-dihydropyrido[3,2-f][1,2,4]triazolo[4,3-d][1,4]oxazepin-3-yl)-1-methoxy-1-(5-methylpyrimidin-2-yl)propane-2-sulfonamide or (1R,2S)-N-((S)-5-(isopropoxymethyl)-5,6-dihydropyrido[3,2-f][1,2,4]triazolo[4,3-d][1,4]oxazepin-3-yl)-1-methoxy-1-(5-methylpyrimidin-2-yl)propane-2-sulfonamide], the EC50 amounted to 800 nM.

For `CO[C@H](c1ncc(C)cn1)[C@H](C)S(=O)(=O)Nc1nnc2n1[C@H](COC(C)C)COc1ncccc1-2` (single isomer, unassigned) [Example 64.0, (1R,2S)-N-((R)-5-(isopropoxymethyl)-5,6-dihydropyrido[3,2-f][1,2,4]triazolo[4,3-d][1,4]oxazepin-3-yl)-1-methoxy-1-(5-methylpyrimidin-2-yl)propane-2-sulfonamide or (1R,2S)-N-((S)-5-(isopropoxymethyl)-5,6-dihydropyrido[3,2-f][1,2,4]triazolo[4,3-d][1,4]oxazepin-3-yl)-1-methoxy-1-(5-methylpyrimidin-2-yl)propane-2-sulfonamide], the EC50 stood at 640 nM.

With `COC[C@@H]1COc2cnccc2-c2nnc(NS(=O)(=O)[C@@H](C)[C@@H](OC(C)C)c3ncc(C)cn3)n21` (single isomer, unassigned) [Example 66.0, (1S,2S)-N-((5R)-5-(methoxymethyl)-5,6-dihydropyrido[4,3-f][1,2,4]triazolo[4,3-d][1,4]oxazepin-3-yl)-1-(5-methyl-2-pyrimidinyl)-1-(2-propanyloxy)-2-propanesulfonamide or (1S,2S)-N-((5S)-5-(methoxymethyl)-5,6-dihydropyrido[4,3-f][1,2,4]triazolo[4,3-d][1,4]oxazepin-3-yl)-1-(5-methyl-2-pyrimidinyl)-1-(2-propanyloxy)-2-propanesulfonamide], the EC50 came out at 760 nM.
